Data set [1] in a line: Pharmacokinetic analysis of granisetron and olanzapine formulation in canines (plasma concentration by LC/MS/MS). It counts as in vivo. The settings on record: both sexes, dog, dogs, same formulation, approx. 5 mg granisetron, read-out: Average Plasma Concentrations of Granisetron. Here is the method:
Plasma samples were taken from each dog at the following time points: 0, 0.5, 1, 3, 6, 8, 24, 48, 72, 96, 120 hours, and frozen.

The conditions of data set [2]: cited from earlier work.

Turning to `CN1C2CCCC1CC(NC(=O)c1nn(C)c3ccccc13)C2` (centres unmarked) [Granisetron, granisetron], in data set [1] (0.5 hrs), the concentration at 0.5 h is 11.7 ng/mL. The concentration at 1 h in data set [1] (1 hr) worked out at 14.3 ng/mL. Besides, the concentration at 3 h in data set [1] (3 hrs) amounted to 14.2 ng/mL. The concentration at 6 h in data set [1] (6 hrs) was 10.7 ng/mL. The concentration at 8 h in data set [1] (8 hrs) was found to be 8.02 ng/mL. Moreover, in data set [1] (24 hrs), the concentration at 24 h was 6.82 ng/mL. Besides, in data set [1] (48 hrs), the concentration at 48 h was determined as 3.27 ng/mL. Besides, the concentration at 72 h in data set [1] (72 hrs) came to 1.54 ng/mL. Besides, in data set [1] (96 hrs), the concentration at 96 h amounted to 0.95 ng/mL. Also, the concentration at 120 h in data set [1] (120 hrs) was determined as 0.4 ng/mL.
As for `Cc1cc2c(s1)Nc1ccccc1N=C2N1CCN(C)CC1` [Olanzapine, 2-methyl-10-(4-methyl-1-piperazinyl)-4H-thieno[2,3-b][1,5]benzodiazepine], in data set [2], the Solubility in water entry is “practically insoluble”.
